Test results from patent publication US20230242520A1, “MALONITRILE DERIVATIVES” (Hoffmann-La Roche Inc., priority 2020, published 2023).

What follows are compounds tested against T1, human cGAS (residues 161-522) (Homo sapiens, UniProt Q8N884) (assay: cGAS Activity Assay - Malachite Green (coupled enzymatic assay, phosphate detection)). Settings: recombinant human cGAS 25 nM, 80 μM ATP, 80 μM GTP, 100 nM ISD, 4 hour at RT.
T1 construct: Recombinantly expressed purified human cGAS (residues 161-522) was used at 25 nM; made in house
T1 sequence (Q8N884 161-522): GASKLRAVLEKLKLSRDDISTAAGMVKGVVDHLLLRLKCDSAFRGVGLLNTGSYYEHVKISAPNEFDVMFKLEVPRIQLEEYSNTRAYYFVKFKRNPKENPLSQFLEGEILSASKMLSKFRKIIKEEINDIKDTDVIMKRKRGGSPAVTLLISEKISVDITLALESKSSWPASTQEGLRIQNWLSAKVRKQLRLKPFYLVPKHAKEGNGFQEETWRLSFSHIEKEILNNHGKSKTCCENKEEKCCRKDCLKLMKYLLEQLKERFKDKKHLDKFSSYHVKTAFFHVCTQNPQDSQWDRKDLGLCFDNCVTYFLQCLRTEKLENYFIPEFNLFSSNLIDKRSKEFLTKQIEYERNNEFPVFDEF
Assay type: biochemical
Procedure: cGAS Activity Assay—Malachite Green
Compounds were tested for cGAS inhibition in a coupled enzymatic assay based on Phosphate detection by Malachite Green. Final assay conditions were 20 mM TRIS pH 7.5 (Applichem), 5 mM MgCl2 (Sigma) and 0.01% BSA (Sigma) supplemented with 80 μM ATP (Sigma), 80 μM GTP (Sigma) and 100 nM Interferon Stimulating DNA (ISD) (Microsynth). Recombinantly expressed purified human cGAS (residues 161-522) was used at 25 nM.
All compounds were prepared as 10 mM stock solutions in DMSO and a 16 pt dilution series in DMSO with a dilution factor of 2.5 was prepared. 1 μL of DMSO dilution series was transferred to 32.3 μL reaction buffer, mixed by pipetting up/down, spun for 1 minute at 3000 rpm and was visually inspected for precipitation. 5 μL of 3-fold enzyme stock solution were transferred to an empty 384-well Black/Clear Flat Bottom Polystyrene NBS (Corning) rows 3-24. Rows 1-2 were filled with assay buffer. Plates were spun 10 seconds at 1000 rpm (164×g). 5 μL of compound intermediate dilution was added and mixed by pipetting up/down to rows 3-24. Rows 1-2 were filled with 3.1% DMSO assay buffer. Plates were spun 10 seconds at 1000 rpm (164×g). 5 μL 3-fold Nucleotide/DNA mix was added to all wells to start the reaction. Plates were spun 10 seconds at 1000 rpm (164×g) and incubated for 4 hour at room temperature (RT) in the dark. 5 μL 4 U/mL PPase (Sigma) were added to all wells. Plates spun 10 seconds at 1000 rpm (164×g). 10 μL BioMol green Solution (Enzo Life Sciences) was added to all wells. Plates spun 10 seconds at 1000 rpm (164×g) and incubated 30 minutes at RT in the dark. Absorbance data was collected 620 nm on an EnVision Multilable Reader (Perkin Elmer) and the following measurement settings were used: excitation filter photometric was 620 nm; excitation from the top; measurement height was 1 mm; number of flashes was 30; number of flashes integrated was 1.
All plates are checked for abnormalities and outliers in the Blank Control (no protein, row 1) and the Neutral Control (no compound, row 2) are excluded using the 3*SD rule. Data was normalized to 0 and 100% by Blank and Neutral Control and each curve was fitted and judged using the 4 parameter logistic equation to determine the IC50 for cGAS inhibition.
Table 2 provides IC50 values (μM ) for cGAS inhibition obtained for particular examples of the present invention as measured by the above-described assay.
For `Cn1cncc1/C(O)=C(\C#N)C(=O)Nc1ccc(C(F)(F)F)cc1` [Example 1, (Z)-2-Cyano-3-hydroxy-3-(1-methyl-1H-imidazol-5-yl)-N-(4-(trifluoromethyl)phenyl)acrylamide], the IC50 was 1.85 µM.
Work on `Cc1oncc1/C(O)=C(\C#N)C(=O)Nc1cccnc1` [Example 2, (Z)-2-cyano-3-hydroxy-3-(5-methylisoxazol-4-yl)-N-(3-pyridyl)prop-2-] yielded an IC50 of 1.57 µM.
With `Cc1oncc1/C(O)=C(\C#N)C(=O)Nc1ccc2c(c1)CCC2=O` [Example 3, (Z)-2-cyano-3-hydroxy-3-(5-methylisoxazol-4-yl)-N-(1-oxoindan-5-yl)prop-2-enamide] the IC50 was 0.22 µM.
Work on `Cn1nncc1/C(O)=C(\C#N)C(=O)Nc1ccc(C(F)(F)F)cc1` [Example 4, (Z)-2-cyano-3-hydroxy-3-(1-methyl-1H-1,2,3-triazol-5-yl)-N-(4-(trifluoromethyl)phenyl) acrylamide] yielded an IC50 of 6.31 µM.
`Cc1oncc1/C(O)=C(\C#N)C(=O)Nc1ccn(C)c(=O)c1` [Example 5, (Z)-2-cyano-3-hydroxy-3-(5-methylisoxazol-4-yl)-N-(1-methyl-2-oxo-4-pyridyl)prop-2-enamide] was tested, and the IC50 was 0.17 µM.
`Cc1oncc1/C(O)=C(\C#N)C(=O)Nc1cc[nH]c(=O)c1` [Example 6, (Z)-2-cyano-3-hydroxy-3-(5-methylisoxazol-4-yl)-N-(2-oxo-1H-pyridin-4-yl)prop-2-enamide] showed an IC50 of 0.18 µM.
For `COc1ccc(NC(=O)/C(C#N)=C(\O)c2cnoc2C)nn1` [Example 7, (Z)-2-cyano-3-hydroxy-N-(6-methoxypyridazin-3-yl)-3-(5-methylisoxazol-4-yl)prop-2-enamide], the IC50 was 1.02 µM.
`COc1ccc(NC(=O)/C(C#N)=C(\O)c2cnoc2C)cn1` [Example 8, (Z)-2-cyano-3-hydroxy-N-(6-methoxy-3-pyridyl)-3-(5-methylisoxazol-4-yl)prop-2-enamide] was tested, and the IC50 was 1.34 µM.
In the case of `COC(=O)c1sccc1NC(=O)/C(C#N)=C(\O)c1cnoc1C` [Example 9, methyl (Z)-3-(2-cyano-3-hydroxy-3-(5-methylisoxazol-4-yl)acrylamido) thiophene-2-carboxylate], the IC50 is reported as 1.27 µM.
`CCOC(=O)c1c(C)csc1NC(=O)/C(C#N)=C(\O)c1cnoc1C` [Example 10, ethyl (Z)-2-(2-cyano-3-hydroxy-3-(5-methylisoxazol-4-yl)acrylamido)-4-methylthiophene-3-carboxylate] gave an IC50 of 0.82 µM.
Work on `Cc1nocc1/C(O)=C(\C#N)C(=O)Nc1ccc(C(F)(F)F)cc1` [Example 11, (Z)-2-cyano-3-hydroxy-3-(3-methylisoxazol-4-yl)-N-(4-(trifluoromethyl)phenyl) acrylamide] yielded an IC50 of 3.99 µM.
`COC(=O)c1ccc(NC(=O)/C(C#N)=C(\O)c2conc2C)cc1` [Example 12, methyl (Z)-4-(2-cyano-3-hydroxy-3-(3-methylisoxazol-4-yl)acrylamido) benzoate] was tested, and the IC50 was 1.13 µM.
`N#C/C(C(=O)Nc1ccc(C(F)(F)F)cc1)=C(/O)c1cnco1` [Example 13, (Z)-2-cyano-3-hydroxy-3-(oxazol-5-yl)-N-(4-(trifluoromethyl)phenyl) acrylamide] was tested, and the IC50 was 7.19 µM.
Compound `Cc1cnoc1/C(O)=C(\C#N)C(=O)Nc1ccc(C(F)(F)F)cc1` [Example 14, (Z)-2-cyano-3-hydroxy-3-(4-methylisoxazol-5-yl)-N-(4-(trifluoromethyl)phenyl) acrylamide] has an IC50 of 8.48 µM.
`Cc1sncc1/C(O)=C(\C#N)C(=O)Nc1ccc(C(F)(F)F)cc1` [Example 15, (Z)-2-cyano-3-hydroxy-3-(5-methylisothiazol-4-yl)-N-(4-(trifluoromethyl)phenyl) acrylamide] gave an IC50 of 4.76 µM.
`Cc1oncc1/C(O)=C(\C#N)C(=O)Nc1cccc2ccccc12` [Example 16, (Z)-2-cyano-3-hydroxy-3-(5-methylisoxazol-4-yl)-N-(naphthalen-1-yl)acrylamide] gave an IC50 of 1.79 µM.
`Cc1oncc1/C(O)=C(\C#N)C(=O)Nc1ccc2ccccc2c1` [Example 17, (Z)-2-cyano-3-hydroxy-3-(5-methylisoxazol-4-yl)-N-(naphthalen-2-yl)acrylamide] showed an IC50 of 1.11 µM.
For `Cc1oncc1/C(O)=C(\C#N)C(=O)Nc1ccncc1` [Example 18, (Z)-2-cyano-3-hydroxy-3-(5-methylisoxazol-4-yl)-N-(4-pyridyl)prop-2-enamide], the IC50 was 0.62 µM.
In the case of `COc1cnc(NC(=O)/C(C#N)=C(\O)c2cnoc2C)cn1` [Example 19, (Z)-2-cyano-3-hydroxy-N-(5-methoxypyrazin-2-yl)-3-(5-methylisoxazol-4-yl)prop-2-enamide], the IC50 is reported as 0.84 µM.
`Cc1cccc(C)c1NC(=O)c1ccc(NC(=O)/C(C#N)=C(\O)c2cnoc2C)cn1` [Example 20, (Z)-5-(2-cyano-3-hydroxy-3-(5-methylisoxazol-4-yl)acrylamido)-N-(2,6-dimethylphenyl) picolinamide] gave an IC50 of 0.5 µM.
Work on `COc1cccc(-c2cc3cc(NC(=O)/C(C#N)=C(\O)c4cnoc4C)ccc3c(=O)[nH]2)c1` [Example 21, (Z)-2-cyano-3-hydroxy-N-(3-(3-methoxyphenyl)-1-oxo-1,2-dihydroisoquinolin-6-yl)-3-(5-methylisoxazol-4-yl)acrylamide] yielded an IC50 of 1.06 µM.
`Cc1oncc1/C(O)=C(\C#N)C(=O)Nc1nc2c(c(-c3ccccc3)n1)CCCC2` [Example 22, (Z)-2-cyano-3-hydroxy-3-(5-methylisoxazol-4-yl)-N-(4-phenyl-5,6,7,8-tetrahydroquinazolin-2-yl)acrylamide] was tested, and the IC50 was 0.97 µM.
Work on `COc1nc(NC(=O)/C(C#N)=C(\O)c2cnoc2C)nc2c1CCCC2` [Example 23, (Z)-2-cyano-3-hydroxy-N-(4-methoxy-5,6,7,8-tetrahydroquinazolin-2-yl)-3-(5-methylisoxazol-4-yl)acrylamide] yielded an IC50 of 5.21 µM.
`Cc1nc(NC(=O)/C(C#N)=C(\O)c2cnoc2C)nc2c1CS(=O)(=O)CC2` [Example 24, (Z)-2-cyano-3-hydroxy-N-(4-methyl-6,6-dioxido-7,8-dihydro-5H-thiopyrano[4,3-d]pyrimidin-2-yl)-3-(5-methylisoxazol-4-yl)acrylamide] showed an IC50 of 0.45 µM.
